Assay: diffusion across skin after transdermal spray administration
Settings: effect of adding octyl salicylate to the transdermal spray formulation (Example 1); predicted cumulative amount, FIGS. 1 and 2

C[C@]12CC[C@@H]3c4ccc(O)cc4CC[C@H]3[C@@H]1CC[C@@H]2O [estradiol]
amount diffusing across the skin over 24 hours: significant marked increase

— patent US20080027033A1, “Method and Composition for Treatment of Cutaneous Lesions” (Acrux DDS Pty Ltd, priority 2003, published 2008)
